Measured values reported in article PMC8824275, “Gastrointestinal Stability and Cytotoxicity of Bacteriocins From Gram-Positive and Gram-Negative Bacteria: A Comparative in vitro Study” (Frontiers in Microbiology, 2022).
Converted amounts (≈) assume the structure as drawn. Read-outs that look alike come from different tables or passages of the source.

Assays:
[1] = tested on: rat erythrocytes; assay: Hemolytic activity; type: cell-based; details: 45 min, 37°C
Description: The experiment was performed after prior approval from the local ethics committee by TransBIOTech laboratory. Hemolytic potential of bacteriocins was evaluated according to [FDA (2005)]. Rat blood was collected into a heparinized tube and added in a 1:1 volume (100 μL) to serially diluted compounds (in 100 μL PBS), in a conical 96-well plate. 10% Triton X-100 and PBS were used as a positive and negative controls, respectively. The plates were sealed and incubated for 45 min at 37°C prior to centrifugation at 2,000 g for 10 min to pellet red blood cells. The supernatant was then transferred into clear 96-well plates and the absorbance was read at 540 nm (hemoglobin). The percentage of hemolysis was calculated as follow, with RBC standing for red blood cells:
%Hemolysis=AbsorbanceofRBCtreatedwithbacteriocins-AbsorbanceofRBCtreatedwithPBS/AbsorbanceofRBCtreatedwithTritonX100-AbsorbanceofRBCtreatedwithPBS

[2] = tested on: L. ivanovii HPB 28; type: cell-based, Listeria ivanovii; details: for Total activity: broth microdilution
Description: Microcin J25 was produced by Escherichia coli MC4100 carrying the plasmid PTUC 202 ([Solbiati et al., 1999]). For the antibacterial activity of pure compounds and digestion mixture, Listeria ivanovii HPB28 (Canada Health Protection Branch) was used as indicator strain for nisin and pediocin PA-1, while Staphylococcus aureus ATCC 6538 (ATCC) and Salmonella enterica subsp. enterica serovar Newport ATCC 6962 (later referred to as S. Newport, ATCC) were used as indicator strains for bactofencin A (M14L, M18L) and microcin J25, respectively. L. ivanovii HPB28 and S. aureus were cultured in Tryptic Soy (Difco Laboratories, Spark, MD, United States) supplemented with 0.6% yeast extract (TSBYE), at 30 and 37°C, respectively. S. Newport was cultured at 37°C overnight in Luria-Bertani (LB) (Difco Laboratories, Spark, MD, United States). All strains were maintained at –80°C as stock cultures in their corresponding culture media supplemented with 20% glycerol, and propagated twice at 24 h intervals before use.
Quantitative determination of inhibitory activity of bacteriocins was carried out using the broth microdilution method as described by [Ben Said et al. (2020)]. Two-fold serial dilutions of bacteriocins (125 μL) were prepared in an appropriate medium in a clear 96-well flat-bottom microtiter plate. Indicator strains were diluted to 10^5 CFU/mL, from which 50 μL were added to each well. The microtiter plates were incubated for 24 h under appropriate conditions, and optical densities were recorded at 595 nm (Infinite M200, Tecan, Switzerland). Control wells contained untreated culture and appropriate medium (blanks). The number of inhibition wells was noted and inhibition activities were calculated in μg/mL.

C=C(NC(=O)[C@@H](NC(=O)[C@H](Cc1c[nH]cn1)NC(=O)[C@@H](NC(=O)[C@H](CO)NC(=O)[C@@H]1CS[C@@H](C)[C@H]2NC(=O)[C@H](C)NC(=O)[C@H](NC(=O)[C@H](CCCCN)NC(=O)[C@H](CCSC)NC(=O)[C@H](CC(N)=O)NC(=O)[C@@H]3CS[C@@H](C)[C@@H](NC(=O)[C@H](CCCCN)NC(=O)[C@@H]4CS[C@@H](C)[C@@H](NC(=O)[C@@H]5CSC[C@@H](NC(=O)/C(=C/C)NC(=O)[C@@H](N)[C@@H](C)CC)C(=O)N[C@@H]([C@@H](C)CC)C(=O)NC(=C)C(=O)N[C@@H](CC(C)C)C(=O)N5)C(=O)N5CCC[C@H]5C(=O)NCC(=O)N4)C(=O)NCC(=O)N[C@@H](C)C(=O)N[C@@H](CC(C)C)C(=O)N[C@@H](CCSC)C(=O)NCC(=O)N3)[C@H](C)SC[C@H](NC2=O)C(=O)N[C@@H](CC(N)=O)C(=O)N1)[C@@H](C)CC)C(C)C)C(=O)N[C@@H](CCCCN)C(=O)O [nisin Z]
Concentration above which dose-dependent increase in percentage of hemolysis was shown ([1]; 0.4 to 400 μg/mL): higher than 50 μg/mL
Hemolysis ([1]; at concentrations close to 400 μg/mL): approximately 100%
Total activity ([2]; after gastric conditions (SGF, pepsin 2000 U/mL, lipase 60 U/mL, pH 3, 90 min, 37°C)): 3.12 AU/mL
Total activity ([2]; after oral conditions (SSF, 2 min, 37°C)): 3.12 AU/mL
Total activity ([2]; after small intestinal conditions (SIF, bile salt 10 mmol/L, pancreatin 100 U/mL, pH 7, 2 h, 37°C)): 200 AU/mL
MIC ([2]; against L. ivanovii): 1.65 µg/mL (≈ 0.495 µM)
Total activity ([2]; pure compound without GI digestion, 24 h, OD 595 nm): 3.12 AU/mL
